Source: US20080069785A1, “PEST-CONTROL COMPOSITIONS, AND METHODS AND PRODUCTS UTILIZING SAME” (priority 2004, published 2008)

System: Horn fly (Haematobia irritans)
Assay: Treatment of livestock, control of flying insects (Example 23)
Type: in vivo
Procedure: The objective of this test was to evaluate the efficacy of the formulations in repelling flying insects from landing on and disturbing livestock. Ten animals were utilized for each treatment or control, with 120 cc/animal applied for each treatment. The experiment was performed by diluting the formulation to the appropriate concentration and spraying the formulation onto the livestock directly. One group had Ivermectin applied as a standard for comparison. Each group of animals was separated in the pasture by fencing. Counts were made immediately before treatments and then 1 day after treatment and 1 week after treatment. Every 2 weeks there was a retreatment and counts were repeated just prior to retreatment with same count cycle recurring through 2 week periods.
The flying insect evaluated was the Horn fly (Haematobia irritans).

Substance: Ivermectin
- Average number of flies landing on the animals (2-Aug, one day after treatment on August 1 (including Ivermectin group)): 4.8
- Average number of flies landing on the animals (6-Jul, one day after the initial treatment, 120 cc/animal, ten animals): 2.4
- Average number of flies landing on the animals (8-Aug, one week after treatment on August 1): 62.0
- Average number of flies landing on the animals (11-Jul, one week after initial treatment): 2.7
- Average number of flies landing on the animals (18-Jul, two weeks after initial treatment): 41.4
- Average number of flies landing on the animals (20-Jul, one day after retreatment on July 19 (except ivermectin)): 54.5
- Average number of flies landing on the animals (25-Jul, one week after retreatment on July 19 (except ivermectin)): 82.7
- Average number of flies landing on the animals (31-Jul, two weeks after retreatment on July 19 (except ivermectin)): 185.9
